According to US20230085307A1, “PYRIDAZINONE COMPOUND AND HERBICIDE” (NISSAN CHEMICAL CORPORATION, priority 2019, published 2023):

Tests used:
lambsquarters [1] = assay: Test Example 4: herbicidal effect by soil treatment (Table 19, symbol O); assay type: in vivo, lambsquarters (Chenopodium album); details: amount of applied herbicide 320 g/ha
Outline: (§1)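 Soil-surface application: an emulsion agent diluted with water to the predetermined dose is sprayed uniformly over seeds lying under roughly 1.5 cm of sterilized diluvial soil. Boxes stay in a greenhouse at 25° C. to 30° C. Three weeks later, each species is graded on previously defined criteria.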

blackgrass = assay: Test Example 5: herbicidal effect by foliage application, plastic box (Table 20, symbol J); assay type: in vivo, blackgrass (Alopecurus myosuroides); details: foliage application, evaluated three weeks after application; for herbicidal effect on J: blackgrass (criteria 0-5): 320 g/ha; for J: blackgrass, herbicidal effect (criteria 0-5): AAH 320 g/ha
Outline: (§2)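 Sow seeds spot-wise in sterilized diluvial soil; cover with ~1.5 cm soil. Grow 14 days in greenhouse, 25° C. to 30° C. Spray foliage with emulsion diluted to predetermined amount. Rate effect after 3 weeks.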

barnyard grass [2] = assay: Test Example 3: herbicidal effect by foliage application, Wagner pot (Table 18, symbol H); assay type: in vivo, barnyard grass (Echinochloa crus-galli); details: amount of applied herbicide 320 g/ha
Outline: (§3)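 Plants were sown in alluvial soil held under 0.1–0.5 cm standing water and grown 14 days in a greenhouse at 25–30 °C. An emulsifiable formulation, water-diluted to the set dose, was then sprayed onto the foliage, and effects were scored three weeks later using previously defined criteria.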

redroot pigweed = assay: Test Example 5: herbicidal effect by foliage application, plastic box (Table 20, symbol N); assay type: in vivo, redroot pigweed (Amaranthus retroflexus); details: foliage application, evaluated three weeks after application; for herbicidal effect on N: redroot pigweed (criteria 0-5): 320 g/ha; for N: redroot pigweed, herbicidal effect (criteria 0-5): AAH 320 g/ha
Outline: as §2

Chinese sprangletop = assay: Test Example 3: herbicidal effect by foliage application, Wagner pot (Table 18, symbol D); assay type: in vivo, chinese sprangletop (Leptochloa chinensis); details: amount of applied herbicide 320 g/ha
Outline: as §3

windgrass [3] = assay: Test Example 4: herbicidal effect by soil treatment (Table 19, symbol L); assay type: in vivo, windgrass (Apera spica-venti); details: amount of applied herbicide 320 g/ha
Outline: as §1

barnyard grass [4] = assay: Test Example 4: herbicidal effect by soil treatment (Table 19, symbol H); assay type: in vivo, barnyard grass (Echinochloa crus-galli); details: amount of applied herbicide 320 g/ha
Outline: as §1

lambsquarters [5] = assay: Test Example 5: herbicidal effect by foliage application, plastic box (Table 20, symbol O); assay type: in vivo, lambsquarters (Chenopodium album); details: foliage application, evaluated three weeks after application; for herbicidal effect on O: lambsquarters (criteria 0-5): 320 g/ha; for O: lambsquarters, herbicidal effect (criteria 0-5): AAH 320 g/ha
Outline: as §2

Japanese bulrush [6] = assay: Test Example 1: herbicidal activity, application before weed generation under submerged conditions (Table 16, symbol B); assay type: in vivo, Japanese bulrush (Schoenoplectus juncoides); details: 320 g/ha applied herbicide
Outline: (§4)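 Emulsion formulation, water-diluted to set dose, was put onto the flooded surface (4 cm depth, alluvial soil) the same day weeds were sown and 2.5-leaf rice transplanted. After 3 weeks at 25-30 °C under glass, each species was rated 0 (≤5% kill) to 5 (≥90% kill).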

windgrass [7] = assay: Test Example 5: herbicidal effect by foliage application, plastic box (Table 20, symbol L); assay type: in vivo, windgrass (Apera spica-venti); details: foliage application, evaluated three weeks after application; for herbicidal effect on L: windgrass (criteria 0-5): 320 g/ha; for L: windgrass, herbicidal effect (criteria 0-5): AAH 320 g/ha
Outline: as §2

barnyard grass [8] = assay: Test Example 5: herbicidal effect by foliage application, plastic box (Table 20, symbol H); assay type: in vivo, barnyard grass (Echinochloa crus-galli); details: foliage application, evaluated three weeks after application; for herbicidal effect on H: barnyard grass (criteria 0-5): 320 g/ha; for H: barnyard grass, herbicidal effect (criteria 0-5): AAH 320 g/ha
Outline: as §2

persian speedwell = assay: Test Example 4: herbicidal effect by soil treatment (Table 19, symbol R); assay type: in vivo, Persian speedwell (Veronica persica); details: amount of applied herbicide 320 g/ha
Outline: as §1

southern crabgrass = assay: Test Example 4: herbicidal effect by soil treatment (Table 19, symbol F); assay type: in vivo, southern crabgrass (Digitaria ciliaris); details: amount of applied herbicide 320 g/ha
Outline: as §1

chickweed = assay: Test Example 5: herbicidal effect by foliage application, plastic box (Table 20, symbol P); assay type: in vivo, common chickweed (Stellaria media); details: foliage application, evaluated three weeks after application; for herbicidal effect on P: chickweed (criteria 0-5): 320 g/ha; for P: chickweed, herbicidal effect (criteria 0-5): AAH 320 g/ha
Outline: as §2

Japanese bulrush [9] = assay: Test Example 2: herbicidal activity, application during weed generation under submerged conditions (Table 17, symbol B); assay type: in vivo, Japanese bulrush (Schoenoplectus juncoides); details: AAH 320 g/ha; application during weed generation, submerged conditions
Outline: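 3-wk visual-criteria score after one water-surface dose. Emulsion formulation, water-diluted to set rate; applied at 1–2 leaf stage; alluvial soil, 4 cm standing water; seeds co-sown; greenhouse 25–30° C.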

late watergrass = assay: Test Example 1: herbicidal activity, application before weed generation under submerged conditions (Table 16, symbol A); assay type: in vivo, late watergrass (Echinochloa oryzicola); details: 320 g/ha applied herbicide
Outline: as §4

SMILES | herbicidal effect on O: lambsquarters (lambsquarters [1]) | herbicidal effect on J: blackgrass (criteria 0-5) (blackgrass) | herbicidal effect on H: barnyard grass (barnyard grass [2]) | herbicidal effect on N: redroot pigweed (criteria 0-5) (redroot pigweed) | herbicidal effect on D: Chinese sprangletop (Chinese sprangletop) | herbicidal effect on L: windgrass (windgrass [3]) | herbicidal effect on H: barnyard grass (barnyard grass [4]) | herbicidal effect on O: lambsquarters (criteria 0-5) (lambsquarters [5]) | Herbicidal effect on B: Japanese bulrush (grade 0-5) (Japanese bulrush [6]) | herbicidal effect on L: windgrass (criteria 0-5) (windgrass [7]) | herbicidal effect on H: barnyard grass (criteria 0-5) (barnyard grass [8]) | herbicidal effect on R: persian speedwell (persian speedwell) | herbicidal effect on F: southern crabgrass (southern crabgrass) | herbicidal effect on P: chickweed (criteria 0-5) (chickweed) | herbicidal effect rating, B: Japanese bulrush (Japanese bulrush [9]) | Herbicidal effect on A: late watergrass (grade 0-5) (late watergrass) | J: blackgrass, herbicidal effect (criteria 0-5) (blackgrass) | N: redroot pigweed, herbicidal effect (criteria 0-5) (redroot pigweed) | O: lambsquarters, herbicidal effect (criteria 0-5) (lambsquarters [5]) | L: windgrass, herbicidal effect (criteria 0-5) (windgrass [7]) | other results
CCCC(=O)Oc1c(C)nn(C)c(=O)c1-c1c(-c2ccc(C(F)F)cc2)sc2ccc(F)cc12 [2-228] | 4 (Herbicidal rate of 70% or more and less than 90%) | 3 (Herbicidal rate of 40% or more and less than 70%) | 5 (Herbicidal rate of 90% or more (almost completely withered)) | 5 (Herbicidal rate of 90% or more (almost completely withered)) | 4 (Herbicidal rate of 70% or more and less than 90%) | 0 (Herbicidal rate of 5% or less (almost no effect)) | 5 (Herbicidal rate of 90% or more (almost completely withered)) | 5 (Herbicidal rate of 90% or more (almost completely withered)) | 4 (Herbicidal rate of 70% or more and less than 90%) | 0 (Herbicidal rate of 5% or less (almost no effect)) | 5 (Herbicidal rate of 90% or more (almost completely withered)) | 5 (Herbicidal rate of 90% or more (almost completely withered)) | 2 (Herbicidal rate of 20% or more and less than 40%) | 5 (Herbicidal rate of 90% or more (almost completely withered)) | 3 (Herbicidal rate of 40% or more and less than 70%) | 5 (Herbicidal rate of 90% or more (almost completely withered)) |  |  |  |  | 
CCSc1ccc(-c2sc3ccc(F)cc3c2-c2c(O)c(C)nn(C)c2=O)cc1 [2-244] | 4 (Herbicidal rate of 70% or more and less than 90%) | 5 (Herbicidal rate of 90% or more (almost completely withered)) | 5 (Herbicidal rate of 90% or more (almost completely withered)) | 5 (Herbicidal rate of 90% or more (almost completely withered)) | 5 (Herbicidal rate of 90% or more (almost completely withered)) | 3 (Herbicidal rate of 40% or more and less than 70%) | 4 (Herbicidal rate of 70% or more and less than 90%) | 5 (Herbicidal rate of 90% or more (almost completely withered)) | 0 (Herbicidal rate of 5% or less (almost no effect)) | 5 (Herbicidal rate of 90% or more (almost completely withered)) | 5 (Herbicidal rate of 90% or more (almost completely withered)) | 5 (Herbicidal rate of 90% or more (almost completely withered)) | 5 (Herbicidal rate of 90% or more (almost completely withered)) | 5 (Herbicidal rate of 90% or more (almost completely withered)) | 3 (Herbicidal rate of 40% or more and less than 70%) | 3 (Herbicidal rate of 40% or more and less than 70%) |  |  |  |  | 
Cc1nn(C)c(=O)c(-c2c(-c3ccc(SC4CC4)cc3)sc3ccc(F)cc23)c1O [2-254] | 4 (Herbicidal rate of 70% or more and less than 90%) |  | 5 (Herbicidal rate of 90% or more (almost completely withered)) |  | 5 (Herbicidal rate of 90% or more (almost completely withered)) | 3 (Herbicidal rate of 40% or more and less than 70%) | 5 (Herbicidal rate of 90% or more (almost completely withered)) |  | 3 (Herbicidal rate of 40% or more and less than 70%) |  |  | 5 (Herbicidal rate of 90% or more (almost completely withered)) | 5 (Herbicidal rate of 90% or more (almost completely withered)) |  | 0 (Herbicidal rate of 5% or less (almost no effect)) | 5 (Herbicidal rate of 90% or more (almost completely withered)) | 5 (Herbicidal rate of 90% or more (almost completely withered)) | 5 (Herbicidal rate of 90% or more (almost completely withered)) | 5 (Herbicidal rate of 90% or more (almost completely withered)) | 5 (Herbicidal rate of 90% or more (almost completely withered)) | H: barnyard grass, herbicidal effect (criteria 0-5) (barnyard grass [8]): 5 (Herbicidal rate of 90% or more (almost completely withered)); P: chickweed, herbicidal effect (criteria 0-5) (chickweed): 5 (Herbicidal rate of 90% or more (almost completely withered))
Cc1nn(C)c(=O)c(-c2c(-c3ccc([S+]([O-])C(C)C)cc3)sc3ccc(F)cc23)c1O (stereo not shown) [2-257] | 5 (Herbicidal rate of 90% or more (almost completely withered)) |  | 5 (Herbicidal rate of 90% or more (almost completely withered)) |  | 3 (Herbicidal rate of 40% or more and less than 70%) | 0 (Herbicidal rate of 5% or less (almost no effect)) | 4 (Herbicidal rate of 70% or more and less than 90%) |  | 0 (Herbicidal rate of 5% or less (almost no effect)) |  |  | 5 (Herbicidal rate of 90% or more (almost completely withered)) | 3 (Herbicidal rate of 40% or more and less than 70%) |  | 0 (Herbicidal rate of 5% or less (almost no effect)) | 1 (Herbicidal rate of 5% or more and less than 20%) | 4 (Herbicidal rate of 70% or more and less than 90%) | 5 (Herbicidal rate of 90% or more (almost completely withered)) | 5 (Herbicidal rate of 90% or more (almost completely withered)) | 5 (Herbicidal rate of 90% or more (almost completely withered)) | H: barnyard grass, herbicidal effect (criteria 0-5) (barnyard grass [8]): 5 (Herbicidal rate of 90% or more (almost completely withered)); P: chickweed, herbicidal effect (criteria 0-5) (chickweed): 5 (Herbicidal rate of 90% or more (almost completely withered))
